Measurements: US7652149B2, “Crystalline pyrazoles” (Pharmacia & Upjohn Company LLC, priority 2004, dated 2010)

Experiment: Suspension crystallization: relative thermodynamic stability of Forms I and II, Tt bracketed
Type: physicochemical
Conditions: for temperature at which the form is the equilibrium solid phase (thermodynamically more stable): mixture of Forms I and II suspended in toluene, at least three days, PXRD
Text: In this Example, the transition temperature between Forms I and II is described. Form I and Form II are enantiotropic, which means that one polymorph is stable at temperatures below a transition temperature, Tt, but the other polymorph is stable at temperatures above Tt. The two solid phases have equal free energies at the transition temperature. Knowledge of the thermodynamic stability relationship is necessary for the selection of suitable crystallization conditions to produce Form I, and for formulation development and commercial manufacturing. It is important to determine Tt for the preparation and processing of bulk drug.
Materials. The Form I sample used in this study was 100% pure when tested by HPLC. Form II was prepared by heating Form I to 155° C. for 3 days in a dry oven and cooled to room temperature. This Form II sample was free of chemical degradation when tested by HPLC.
Methods. Suspension crystallization. The relative stability relationship between Forms I and II at a specific temperature was bracketed by suspending a mixture of the two polymorphs in toluene in a closed glass vial that was equilibrated at the temperature of interest. Excess solid of one polymorph was first added to saturate toluene in a glass vial at the chosen temperature. The other polymorph was added at least half an hour later. The suspension was stirred continuously for at least three days. A portion of the suspension was withdrawn and immediately filtered. The filtered solid was analyzed using PXRD to identify the equilibrium solid at that temperature. […] By repeating the experiment at different temperatures, the Tt was bracketed.

| SMILES | temperature at which the form is the equilibrium solid phase (thermodynamically more stable) [°C] | relative stability of the crystal form (ambient temperature and pressure) |
| --- | --- | --- |
| NS(=O)(=O)c1ccc(-n2nc(C(F)(F)F)cc2-c2ccc(F)cc2)cc1 [Form I, 4-[5-(4-fluorophenyl)-3-(trifluoromethyl)-1H-pyrazol-1-yl]-benzenesulfonamide] | ≤ 71.0 | – |
| NS(=O)(=O)c1ccc(-n2nc(C(F)(F)F)cc2-c2ccc(F)cc2)cc1 [Form II, 4-[5-(4-fluorophenyl)-3-(trifluoromethyl)-1H-pyrazol-1-yl]-benzenesulfonamide] | ≥ 71.5 | unstable with respect to another form, Form I |
